“And” between values parts separate entries of the source, which are not always exact repeats. Equal entries are not always repeated.
Key:
Assay in all cases: Ganglioside ELISA
[1] = target: T1, Siglec-6-Fc WT (Homo sapiens, UniProt O43699); type: binding; conditions: for ganglioside ELISA signal, Siglec-6 WT: Figure 2c, replicates; for ELISA recognition of adsorbed ganglioside by Siglec-6 (in words): ganglioside adsorbed to microplate, outside a bilayer
T1 construct: the Siglecs as Fc chimeras; made in house; host or cells: WT CHO cells
Experimental: (§1) Siglec-Fc constructs designed by Rodrigues et al.[30] were used in this work. Siglec-Fc constructs were expressed using WT CHO cells in cell culture media as described above with 1% HEPES. Cells incubated as described above for one-week post confluency. The supernatant was harvested and stored at 4 °C.
(§2) The purification was heavily inspired by Rodrigues et al.[30]. The purification of the Siglec-Fcs from supernatant began with Ni^2+ affinity chromatography using an AKTA FPLC equipped with a HisTrap Excel column (GE). The column was equilibrated with fifteen column volumes (CVs) of equilibrium buffer (500 mM NaCl, 20 mM NaPO4H2, pH 7.4). The Siglec-Fc containing supernatant was then loaded in its entirety onto the column. The column was then washed with fifteen CVs of wash buffer (500 mM NaCl, 30 mM imidazole, 20 mM NaPO4H2, pH 7.4). The Siglec-Fc was then eluted in 20 in 1 mL fractions with twenty CVs of elution buffer (500 mM NaCl, 500 mM imidazole, 20 mM NaPO4H2, pH 7.4). Fractions containing Siglec-Fc were compiled and then prepared for the next stage of purification by diluting the fractions 1:4 with buffer W (100 mM Tris–HCl, 150 mM NaCl, 1 mM EDTA, pH 8.0). A Strep-Tactin column (IBA life sciences) was washed with fifteen CVs of buffer W. The Siglec-Fc-buffer W solution was then loaded in its entirety onto the column. The bound Siglec-Fc was then washed with fifteen CVs of buffer W. Siglec-Fc was eluted from the column with 15 column volumes of buffer E (100 mM Tris–HCl, 150 mM NaCl, 1 mM EDTA, 10 mM d-Desthiobiotin, pH 8.0). Fractions containing Siglec-Fc were pooled and dialyzed against PBS to remove any d-Desthiobiotin. After dialysis, Siglec-Fcs were concentrated using an ultra-centrifugal device (30 kDa MWCO) and aliquoted into 5 µg aliquots, and frozen. The Siglec-Fcs were then lyophilized overnight, and the lyophilized Siglec-Fcs were stored at −20 °C.
(§3) Our ELISA approach was carried out similarly to previous work by Rapoport[12] and Yamakawa[44]. Ganglioside ethanol solutions (10 µM) were prepared and then transferred in 50 µL increments to a 96-well microplate. The ethanol was removed by drying the plates overnight at room temperature. The plates were then washed with PBS, dried, and then blocked with 5% (m/V) BSA PBS for 1 h. The plates were then washed with PBS and then 2 µg/mL Siglec-Fc precomplexed to Strep-Tactin (2 Siglec-Fc:1 Strep-Tactin monomer) horse radish peroxidase was added to the microplate. The complex was incubated with the plate at room temperature for 2 h. The unbound complexes were then removed by washing in PBS and the plate was developed with Sera care TMB solution. The amount of binding was then quantified by using the background (microplate well with no ligand) subtracted absorbance at 450 nm using a Molecular Devices SpectraMAX ® iD5.

[2] = target: T2, Siglec-7-Fc R124A (Homo sapiens, UniProt Q9Y286, R124A); type: binding; conditions: Figure 2c, replicates
T2 construct: the Siglecs as Fc chimeras; made in house; host or cells: WT CHO cells
Experimental: as §1, §2, §3

[3] = target: T3, R122A Siglec-6-Fc (Homo sapiens, UniProt O43699, R122A); type: binding; conditions: Figure 2c, replicates
T3 construct: the Siglecs as Fc chimeras; made in house; host or cells: WT CHO cells
Experimental: as §1, §2, §3

[4] = target: Siglec-1-Fc WT (Homo sapiens, UniProt Q9BZZ2); type: binding; conditions: Figure 2c, replicates
Experimental: as §1, §2, §3

[5] = target: T4, Siglec-7-Fc WT (Homo sapiens, UniProt Q9Y286); type: binding; conditions: Figure 2c, replicates
T4 construct: the Siglecs as Fc chimeras; made in house; host or cells: WT CHO cells
Experimental: as §1, §2, §3

[6] = system: Siglec-1-Fc R116A; type: binding, human; conditions: Figure 2c, replicates
Experimental: as §1
as §2, with “Fractions containing Siglec-Fc were compiled and then prepared for the next stage of purification by diluting the fractions 1:4 with buffer W (100 mM Tris–HCl, 150 mM NaCl, 1 mM EDTA, pH 8.0).” left out, “The bound Siglec-Fc was then washed with fifteen CVs of buffer W. Siglec-Fc was eluted from the column with 15 column volumes of buffer E (100 mM Tris–HCl, 150 mM NaCl, 1 mM EDTA, 10 mM d-Desthiobiotin, pH 8.0).” left out
as §3

T2 sequence (Q9Y286 19-353 R124A limits assumed): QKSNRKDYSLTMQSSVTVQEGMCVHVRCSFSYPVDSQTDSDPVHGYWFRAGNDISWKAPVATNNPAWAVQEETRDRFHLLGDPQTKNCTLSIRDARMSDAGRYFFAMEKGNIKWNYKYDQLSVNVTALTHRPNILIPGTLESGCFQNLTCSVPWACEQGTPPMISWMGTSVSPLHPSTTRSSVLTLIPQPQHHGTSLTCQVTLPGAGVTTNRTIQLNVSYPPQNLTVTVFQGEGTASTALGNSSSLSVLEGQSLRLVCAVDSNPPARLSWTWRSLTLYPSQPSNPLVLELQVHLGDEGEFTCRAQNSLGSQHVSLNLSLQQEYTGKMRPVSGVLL
T3 sequence (O43699 27-347 R122A limits assumed): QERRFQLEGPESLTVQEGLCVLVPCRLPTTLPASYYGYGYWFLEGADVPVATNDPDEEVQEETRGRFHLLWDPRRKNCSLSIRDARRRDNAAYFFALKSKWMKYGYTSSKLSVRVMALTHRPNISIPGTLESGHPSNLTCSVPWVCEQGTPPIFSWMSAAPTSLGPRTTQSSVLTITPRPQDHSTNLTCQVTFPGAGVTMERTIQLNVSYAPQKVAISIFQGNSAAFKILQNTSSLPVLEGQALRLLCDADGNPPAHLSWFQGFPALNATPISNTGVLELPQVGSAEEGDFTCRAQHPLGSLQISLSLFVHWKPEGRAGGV
Sequence of Siglec-1-Fc WT (Q9BZZ2 20-136 limits assumed): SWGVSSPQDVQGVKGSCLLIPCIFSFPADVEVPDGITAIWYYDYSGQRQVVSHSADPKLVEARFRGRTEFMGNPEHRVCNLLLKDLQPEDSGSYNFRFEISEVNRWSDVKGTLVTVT
T4 sequence (Q9Y286 19-353 limits assumed): as the sequence (Q9Y286 19-353 R124A limits assumed) above, with A106R counted along it
Sequence of Siglec-1-Fc R116A (Q9BZZ2 20-136 R116A limits assumed): as the sequence (Q9BZZ2 20-136 limits assumed) above, with R97A counted along it
T1 sequence (O43699 27-347 limits assumed): as the sequence (O43699 27-347 R122A limits assumed) above, with A96R counted along it

Compound	fold difference in binding to Siglec-6 between 5 and GM3 ([1]; by ELISA)	ganglioside ELISA signal, Siglec-7 R [2]	ganglioside ELISA signal, Siglec-6 R [3]	ganglioside ELISA signal, Siglec-1 WT [4]	ganglioside ELISA signal, Siglec-6 WT [1]	ELISA recognition of adsorbed ganglioside by Siglec-6 (in words) [1]	ganglioside ELISA signal, Siglec-7 WT [5]	ganglioside ELISA signal, Siglec-1 R [6]
CCCCCCCCCCCCCCCCOCC(COCCCCCCCCCCCCCCCC)OCc1cn(CCO[C@@H]2O[C@H](CO)[C@@H](O[C@@H]3O[C@H](CO)[C@H](O)[C@H](O[C@]4(C(=O)O)C[C@H](O)[C@@H](NC(C)=O)[C@H]([C@H](O)[C@H](O)CO)O4)[C@H]3O)[C@H](O)[C@H]2O)nn1 [nGL 5]	1.5 fold							
GD1a		0.05 and 0 and -0.01	0.08 and 0.06 and 0.05	0.75 and 1.01 and 0.87	-0.08 and 0.02 and 0.01 and -0.06	did not recognize	0.27 and 0.32 and 0.24 and 0.37	0.06 and 0.08 and 0.11 and 0.09
GD1b		0 and -0.01 and -0.02	0.07 and 0.09 and 0.06 and 0.08	0.52 and 0.66 and 0.64 and 0.62	-0.04 and 0.01		0.41 and 0.39 and 0.38	0.11 and 0.13 and 0.17
GD3		0.01 and -0.01 and -0.02	0.22 and 0.2	0.76 and 0.85 and 0.8 and 0.82	0.04 and 0.09 and 0.03	did not recognize	0.74 and 0.73 and 0.7 and 0.66	0.22 and 0.18 and 0.24 and 0.28
GM1		0 and -0.01 and 0.03	0.02 and 0.03	0.39 and 0.55 and 0.5 and 0.54	-0.03 and -0.04 and -0.05 and -0.02	did not recognize	0.04 and 0.05 and 0.01 and 0.03	0.07 and 0.08 and 0.1 and 0.14
GM2		-0.01 and 0 and -0.02	0.04 and 0.05 and 0.06 and 0.07	0.89 and 1.09 and 1.03 and 1.06	0 and 0.04 and 0.02 and 0.03		0.12 and 0.09 and 0.1 and 0.06	0.07 and 0.09 and 0.15 and 0.11
GM3		-0.02 and 0	0.34 and 0.37 and 0.41 and 0.4	0.99 and 1.04 and 1.15 and 1.05	0.27 and 0.3 and 0.26	interacted weakly	0.61 and 0.6 and 0.68 and 0.7	0.33 and 0.4 and 0.43 and 0.46
GM4		-0.01 and 0 and -0.02	0.26 and 0.23 and 0.24 and 0.28	0.62 and 0.66 and 0.72 and 0.59	0.22 and 0.25 and 0.27 and 0.23	interacted weakly	0.52 and 0.45 and 0.53 and 0.58	0.18 and 0.21 and 0.26 and 0.27
GQ1b		-0.01 and 0	0.11 and 0.1 and 0.13 and 0.12	0.15 and 0.21 and 0.24 and 0.23	-0.1 and -0.02 and -0.09 and -0.12	did not recognize	0.66 and 0.63 and 0.69	-0.01 and -0.02 and 0
GT1b		-0.01 and -0.02	0.11 and 0.08 and 0.1 and 0.13	0.25 and 0.3 and 0.43 and 0.46	-0.04 and -0.01 and -0.09 and -0.11	did not recognize	0.49 and 0.55 and 0.5	0.02 and 0.04 and 0.03

Source: paper PMC10122656, “Siglec-6 mediates the uptake of extracellular vesicles through a noncanonical glycolipid binding pocket” (Nature Communications, 2023)
